Data taken from patent US8784910B2, “Antimicrobial compositions” (Lonza Inc., priority 2002, dated 2014).

How the values were obtained:
Format in all cases: cell-based
[1] = test system: S. aureus (ATCC #6538), P. aeruginosa (ATCC #9027), and E. coli (ATCC #8739); assay: Mixed bacterial challenge of preserved anionic protein shampoo (Examples 4 and 7); details: 1.0% (1%) by weight in shampoo; for S. aureus, P. aeruginosa, and E. coli Day 0: Day 0, Table 3; for S. aureus, P. aeruginosa, and E. coli Day 7: Day 7, Table 3; for S. aureus, P. aeruginosa, and E. coli Day 14: Day 14, Table 3
Procedure: (§1) Each anionic shampoo sample in Table 3 below was tested as follows. A standardized mixed bacterial solution was prepared according to the following procedure. 3 agar stabs of S. aureus (ATCC #6538), P. aeruginosa (ATCC #9027), and E. coli (ATCC #8739) were separately incubated at about 35 EC for about 24 hours. Each stab was then washed with 3 mL of sterile 0.85% saline solution. The washes of the 3 stabs were pooled together to form an organism mixture. The absorbance of the organism mixture at 530 nm was adjusted to about 1.00 by adding saline. The spectrometer was calibrated with a saline blank. A 5 mL aliquot of the organism mixture was mixed together to produce the standardized mixed bacterial solution. Then, 40 g of each shampoo sample was inoculated with 0.2 mL of the standardized mixed bacterial solution and mixed. 1 g of the mixture was added to a sterile 20×150 mm screw cap test tube.
9 mL of sterile D/E neutralizer broth was added to the test tube and mixed to form a 10^−1 dilution. Serial dilutions were prepared through to a 10^−6 dilution with phosphate buffered water. The serial dilutions were plated onto Tryptic Soy Agar and incubated for 2 days at about 35 EC. Bacteria counts were performed after 0, 7, and 14 days.
(§2) The anionic protein shampoo composition was comprised of 35% by weight of sodium lauryl ether sulfate; 25% by weight of triethanolamine lauryl sulfate; 3% by weight coconut diethanolamide (cocamide DEA); 1% by weight of hydrolyzed collagen, available as Polypro 5000™ from Hormel Foods of Austin, Minn.; and 36% by weight of deionized water.
The cinnamaldehyde and other preservative containing samples were prepared by mixing the appropriate amounts of the preservatives and the aforementioned anionic protein shampoo composition and heating the mixture to about 50 EC for about 15 minutes.
Synergism for the cinnamaldehyde/Glydant 2000™ solutions in Table 8 against S. aureus, P. aeruginosa, and E. coli was calculated by the method described in C. E. Kull et al., A Mixtures of Quaternary Ammonium Compounds and Long-chain Fatty Acids as Antifungal Agents@, Applied Microbiology, 9:538-541 (1961). The synergism value (QA/Qa+QB/Qb) in Table 7 was determined. […] Qa is the concentration of cinnamaldehyde alone (in percent by weight) required to yield 100% retardation of the bacteria. QB is the concentration of Glydant 2000™ (in percent by weight) in the mixture, which yielded 100% retardation of the bacteria. Qb is the concentration of Glydant 2000™ alone (in percent by weight) required to yield 100% retardation of the bacteria.
When the value of (QA/Qa+QB/Qb) is less than one, the mixture is synergistic. Values for (QA/Qa+QB/Qb) of 1 and greater than 1, represent an additive effect and an antagonistic effect, respectively.

[2] = test system: S. aureus (ATCC #6538), P. aeruginosa (ATCC #9027), and E. coli (ATCC #8739); assay: Mixed bacterial challenge of preserved anionic protein shampoo, pH 6.5 (Example 3); details: 0.45% w/w in shampoo; for bacteria count Day 0: pH 6.5, Day 0; for bacteria count Day 7: pH 6.5, Day 7; for bacteria count Day 14: pH 6.5, Day 14; for bacteria count Day 28: pH 6.5, Day 28
Procedure: as §1, with “FIGS. 1-3 were” for “Table 3 below was”
9 mL of sterile D/E neutralizer broth was added to the test tube and mixed to form a 10^−1 dilution. Serial dilutions were prepared through to a 10^−6 dilution with phosphate buffered water. The serial dilutions were plated onto Tryptic Soy Agar and incubated for 2 days at about 35 EC. […]
as §2
The antimicrobial composition containing samples were prepared by mixing the appropriate amounts of the antimicrobial ingredients and the aforementioned anionic protein shampoo composition and heating the mixture to about 50 EC for about 15 minutes.
The pH of the shampoo was adjusted to 6.5. […]

[3] = test system: Candida albicans and Aspergillus niger; assay: Mixed fungal challenge of preserved anionic protein shampoo (Example 5); details: 1.0% in shampoo
Procedure: Each anionic shampoo sample in Table 4 below was tested as follows. A standard mixed […] solution was prepared according to the following procedure. 2 agar […] of Candida albicans and 4 agar […] of Aspergillus niger were separately incubated at about 25 EC for about 48 hours and 7 days, respectively. Each slant was washed with 3 mL of sterile 0.85% saline solution, collected and macerated in a tissue grinder. Sufficient amounts of 0.85% saline solution were added to each slant to obtain a visual count under a microscope with a Neubauer Hemocytometer of each innoculum of C. albicans and A. niger. Equal volumes of each standardized innoculum of C. albicans and A. niger were mixed together to form the standardized mixed fungal solution. 40 g of each shampoo sample was inoculated with 0.4 mL of the standardized mixed fungal solution and mixed. 1 g of the mixture was added to a sterile 20×150 mm screw cap test tube. 9 mL of sterile D/E neutralizer broth was added to the test tube and mixed to form a 10^-1 dilution. Serial dilutions were prepared through to a 10^-6 dilution with phosphate buffered water. The serial dilutions were plated onto Sabourand dextrose agar and incubated 5 days at about 25 EC. […] The anionic protein shampoo composition is described in Example 4. The shampoo samples were prepared by mixing the appropriate amounts of the preservatives and the anionic protein shampoo composition and heating the mixture to about 50 EC for about 15 minutes.

[4] = test system: Staphylococcus aureus (ATCC #6538); assay: Minimum Inhibitory Concentration (MIC), autodilutor, nutrient broth, 96 well plates (Example 8); details: 72 hours at 32 degree Celsius, approximately 10^6 cfu/g, visual turbidity
Procedure: The Minimum Inhibitory Concentration (MIC) of the preservative mixtures was tested. The MIC is the lowest concentration of an ingredient that will inhibit the growth of an organism. This study was conducted using the Hamilton Micro Lab AT Plus Autodilutor Liquid handling System. The programs for the auto-dilutor were based on Lonza's Standard Application Method SAPM#412-01-1. The Hamilton Autodilutor was used to dilute the starting concentrations of the preservative combination by 50% using nutrient broth in 96 well micro titer plates and also to inoculate the microorganism in the test samples. This preservatives tested were Isocil™ (a blend of methyl isothiazolinone and methyl-chloro-isothiazolinone), Benzocil™ (benzisothiazolinone) and Lonzagard™ (benzethonium chloride), all of which are available from Lonza Inc. of Fair Lawn, N.J., in various concentrations and combinations with cinnamaldehyde. Controls were also included in each test plate. […] Results were determined by checking for growth in the test samples versus the control wells on each plate (visual determination of turbidity in the wells). […] Synergism values for the Isocil™/cinnamaldehyde and Benzocil™/cinnamaldehyde combinations were calculated from the MIC values reported in Table 11 by the method described in Kull, supra, referred to above, and are set forth in Tables 12 and 13, below.

Row | SMILES | S. aureus, P. aeruginosa, and E. coli Day 0 [1] | S. aureus, P. aeruginosa, and E. coli Day 7 [1] | S. aureus, P. aeruginosa, and E. coli Day 14 [1] | bacteria count Day 0 [2] | bacteria count Day 7 [2] | bacteria count Day 14 [2] | also measured
1 | C=CCc1ccc(O)c(OC)c1 [Eugenol] | 3.0 × 10^7 cfu/g | 3.0 × 10^7 cfu/g | 3.0 × 10^7 cfu/g | – | – | – | –
2 | C/C=C/C=C/C(=O)[O-].[K+] [potassium sorbate] | – | – | – | 1-3 × 10^6 cfu/g | 1 × 10^5 cfu/g | 6 × 10^4 cfu/g | –
3 | CC(C)=CCC/C(C)=C/CO [Gerniol] | 3.0 × 10^7 cfu/g | 3.0 × 10^7 cfu/g | 3.0 × 10^7 cfu/g | – | – | – | –
4 | CC(C)=CCC/C(C)=C\CO [Nerol] | 3.0 × 10^7 cfu/g | 3.0 × 10^7 cfu/g | 3.0 × 10^7 cfu/g | – | – | – | –
5 | OCc1ccccc1 [Benzyl Alcohol, reference compound] | 3.0 × 10^7 cfu/g | 5.0 × 10^6 cfu/g | 5.3 × 10^6 cfu/g | – | – | – | Fungal Plate Count Day 0 ([3]; Day 0): 1.0 × 10^5 cfu/g; Fungal Plate Count Day 7 ([3]; Day 7): 6.0 × 10^3 cfu/g; Fungal Plate Count Day 14 ([3]; Day 14): 6.0 × 10^4 cfu/g
6 | O=C([O-])c1ccccc1.[Na+] [sodium benzoate] | – | – | – | 1-3 × 10^6 cfu/g | 1 × 10^5 cfu/g | 7 × 10^5 cfu/g | bacteria count Day 28 [2]: <10 cfu/g
7 | CC(C)=CCCC(C)=CC=O [Citral] | 3.0 × 10^7 cfu/g | 3.0 × 10^7 cfu/g | 3.0 × 10^7 cfu/g | – | – | – | –
8 | C=C(C)[C@H]1CC=C(C)CC1 [d-Limonene] | 3.0 × 10^7 cfu/g | 3.0 × 10^7 cfu/g | 3.0 × 10^7 cfu/g | – | – | – | –
9 | O=c1[nH]sc2ccccc12 [Benzocil ™, benzisothiazolinone] | – | – | – | – | – | – | MIC for S. Aureus [4]: 9.375 ppm (active)
10 | O=C1O[C@H]([C@H](O)CO)C([O-])=C1O.[Na+] [sodium erythorbate] | – | – | – | 1-3 × 10^6 cfu/g | >3 × 10^6 cfu/g | >3 × 10^6 cfu/g | bacteria count Day 28 [2]: >3 × 10^6 cfu/g
